The source of these data is the NIST ThermoML archive (doi:10.1016/j.fluid.2007.10.011).

± gives the expanded uncertainty stated by the source.

For data set [1] the following is noted: 298.2 K; 101.33 kPa; Liquid; Pycnometric method.
Data set [2] in a line: refractive index (Na D-line) (dimensionless). Conditions: 298.2 K; 101.33 kPa; Liquid; Standard Abbe refractometry.

`CCCCn1cc[n+](C)c1.COCCOCCOS(=O)(=O)[O-]` [1-butyl-3-methylimidazolium 2-(2-methoxyethoxy)ethyl sulfate]: the mass density in data set [1] is 1170 ± 10 kg/m3. Further, the refractive index in data set [2] stood at 1.48 ± 0.001.
As for `CCCCn1cc[n+](C)c1.F[P-](F)(F)(F)(F)F` [1-butyl-3-methylimidazolium hexafluorophosphate], in data set [1], the mass density is 1380 ± 10 kg/m3. Moreover, the refractive index in data set [2] amounted to 1.41 ± 0.001.
Regarding `CCCCn1cc[n+](C)c1.F[B-](F)(F)F` [1-butyl-3-methylimidazolium tetrafluoroborate], in data set [1], the mass density is 1200 ± 10 kg/m3. Besides, the refractive index in data set [2] was found to be 1.422 ± 0.001.
On the same counts, the results for `CCn1cc[n+](C)c1.Cc1ccc(S(=O)(=O)[O-])cc1` [1-ethyl-3-methylimidazolium 4-methylbenzenesulfonate] are 1210 ± 10 kg/m3 and 1.538 ± 0.001.
For the compound `CC(O)c1ccccc1` (stereo unspecified) [1-phenylethanol], in data set [1], the mass density came out at 1010 ± 2 kg/m3. For the same compound, in data set [2], the refractive index was 1.5225 ± 0.0008.
On the same counts, the results for `CCC(=O)OC(C)c1ccccc1` (stereo unspecified) [1-phenylethyl propionate] are 1007 ± 2 kg/m3 and 1.4865 ± 0.0008.
As for `CCC(=O)O` [propanoic acid], the mass density in data set [1] was determined as 992 ± 1 kg/m3. Also, the refractive index in data set [2] worked out at 1.382 ± 0.001.
With `C=COC(=O)CC` [vinyl propanoate], the mass density in data set [1] is 919 ± 2 kg/m3. Moreover, the refractive index in data set [2] is 1.402 ± 0.001.
